Reference: patent US20170368082A1, “FORMULATIONS OF BRINCIDOFOVIR” (priority 2016, published 2017)

Test: Sterilization filter compatibility
Type: physicochemical
Protocol: Formulations of the disclosure were evaluated for sterilization filter compatibility. Aliquots of a testing brincidofovir formulation were filtered through the corresponding syringe filters as follows:
A: Filter: 0.2 μm, 25 mm, syringe filter, Supor® membrane (PES), sterile; testing solution: 10 mg/mL brincidofovir, 200 mM sodium phosphate, pH=8.0; testing volume: 10 mL. B: Filter: 0.2 μm, 25 mm, syringe filter, Posidyne® membrane, sterile; testing solution: 10 mg/mL brincidofovir, 200 mM sodium phosphate, pH=8.0; testing volume: 10 mL. C: Filter: 0.22 μm, 33 mm, syringe filter, Durapore® PVDF membrane, γ-irradiated; testing solution: […] brincidofovir, 4 mM sodium phosphate, pH-8, approx. 5% dextrose (50× dilution of 10 mg/mL brincidofovir, 200 mM sodium phosphate, pH=8.0 with 5% dextrose solution; testing volume: 50 mL.
The first and last 10% of the filtrate were collected. Samples of the collected filtrates, along with samples of the pre filtration formulation, were assessed for their appearance, pH, and c(BCV).

[1] = PES filter membrane, first 10% filtrate volume
[2] = PES filter membrane, last 10% filtrate volume
[3] = PES filter membrane, pre filtration
[4] = PVDF filter membrane, first 10% filtrate volume
[5] = PVDF filter membrane, last 10% filtrate volume
[6] = PVDF filter membrane, pre filtration
[7] = Posidyne filter membrane, first 10% filtrate volume
[8] = Posidyne filter membrane, last 10% filtrate volume
[9] = Posidyne filter membrane, pre filtration

CCCCCCCCCCCCCCCCOCCCOP(=O)(O)CO[C@H](CO)Cn1ccc(N)nc1=O [Brincidofovir]
Appearance [1]: Clear, | Measured pH [1]: 8.0 | Observed c(BCV) [1]: 9.8 mg/mL | Appearance [2]: Clear, | Measured pH [2]: 8.0 | Observed c(BCV) [2]: 9.8 mg/mL | Appearance [3]: Clear, | Measured pH [3]: 8.1 | Observed c(BCV) [3]: 9.9 mg/mL | Appearance [4]: Clear, | Measured pH [4]: 8.1 | Observed c(BCV) [4]: 0.20 mg/mL | Appearance [5]: Clear, | Measured pH [5]: 8.1 | Observed c(BCV) [5]: 0.20 mg/mL | Appearance [6]: Clear, | Measured pH [6]: 8.0 | Observed c(BCV) [6]: 0.20 mg/mL | Appearance [7]: Clear, | Measured pH [7]: 8.0 | Observed c(BCV) [7]: 9.7 mg/mL | Appearance [8]: Clear, | Measured pH [8]: 8.0 | Observed c(BCV) [8]: 9.8 mg/mL | Appearance [9]: Clear, | Measured pH [9]: 8.1 | Observed c(BCV) [9]: 9.9 mg/mL
